Reference: publication PMC4234439 (Journal of Medicinal Chemistry, 2014)
Blank lines part the entries; values can stand above or below the compound they belong to.

What was measured:
P. berghei-GFP parasites = assay type: in vivo, Plasmodium berghei; details: for animals cured: Thompson test, 10 mg/kg, five mice per group
[1] = plasma exposure in Swiss mice; assay type: in vivo, Swiss outbred mice; details: oral 10 mg/kg, PEG400 suspension, comparison in words
[2] = system: P. falciparum strain TM90-C2B (chloroquine, mefloquine, pyrimethamine, and atovaquone resistant); test: microbe, parasite or virus in culture; details: Plasmodium falciparum, TM90, read-out: EC50 (nM) TM90-C2B
[3] = human liver microsomal stability; assay type: in vitro ADME; details: liver microsomes, intrinsic clearance (CLint)
[4] = plasma protein binding by ultracentrifugation; assay type: in vitro ADME; details: 37 °C

Compound: COc1cc2[nH]c(C)c(-c3ccc(-c4ccc(OC(F)(F)F)cc4)nc3)c(=O)c2cc1Cl [Compound 67, 6-Chloro-7-methoxy-2-methyl-3-(6-(4-(trifluoromethoxy)phenyl)pyridin-3-yl)quinolin-4(1H)-one]
animals cured (P. berghei-GFP parasites): cured all the mice | plasma exposure [1]: slightly lower exposure

Compound: COc1cc2[nH]c(C)c(-c3cc4ccccc4s3)c(=O)c2cc1Cl [Compound 30, 3-(Benzo[b]thiophen-2-yl)-6-chloro-7-methoxy-2-methylquinolin-4(1H)-one]
EC50 [2]: 24.8 to 138 nM

microsomal CLint at 1 μM [3]: < 15 µL/min/mg
Compound: COc1cc2[nH]c(C)c(-c3cccnc3)c(=O)c2cc1Cl [Compound 20, 6-Chloro-7-methoxy-2-methyl-3-(pyridin-3-yl)quinolin-4(1H)-one]

Compound: COc1cc2[nH]c(C)c(-c3ccc(Oc4ccc(OC(F)(F)F)cc4)cc3C)c(=O)c2cc1Cl [Compound 62, 6-Chloro-7-methoxy-2-methyl-3-(2-methyl-4-(4-(trifluoromethoxy)phenoxy)phenyl)-quinolin-4(1H)-one]
animals cured (P. berghei-GFP parasites): two out of five

microsomal CLint at 1 μM [3]: < 15 µL/min/mg
Compound: COc1cc2[nH]c(C)c(-c3ccncc3)c(=O)c2cc1Cl [Compound 21, 6-Chloro-7-methoxy-2-methyl-3-(pyridin-4-yl)quinolin-4(1H)-one]

binding to plasma proteins [4]: > 99% | plasma exposure [1]: highest exposure
Compound: COc1cc2[nH]c(C)c(-c3ccc(Oc4ccc(OC(F)(F)F)cc4)cc3F)c(=O)c2cc1Cl [Compound 7]

Compound: COc1cc2[nH]c(C)c(-c3ccc(N4CCN(C)CC4)nc3)c(=O)c2cc1Cl [Compound 24, 6-Chloro-7-methoxy-2-methyl-3-(6-(4-methylpiperazin-1-yl)pyridin-3-yl)quinolin-4(1H)-one]
EC50 [2]: ≥ 536 nM

microsomal CLint at 1 μM [3]: 19 µL/min/mg
Compound: COc1cc2[nH]c(C)c(-c3ccc(Oc4ccccc4)cc3)c(=O)c2cc1Cl [Compound 46, 6-Chloro-7-methoxy-2-methyl-3-(4-phenoxyphenyl)quinolin-4(1H)-one]

plasma exposure [1]: substantially lower
Compound: COc1cc2[nH]c(C)c(-c3ccc(C(F)(F)F)cc3)c(=O)c2cc1Cl [Compound 52, 6-Chloro-7-methoxy-2-methyl-3-(4-(trifluoromethyl)phenyl)quinolin-4(1H)-one]

plasma exposure [1]: slightly lower exposure
Compound: COc1cc2[nH]c(C)c(-c3ccc(-c4ccc(C(F)(F)F)cc4F)nc3)c(=O)c2cc1Cl [Compound 66, 6-Chloro-3-(6-(2-fluoro-4-(trifluoromethyl)phenyl)pyridin-3-yl)-7-methoxy-2-methylquinolin-4(1H)-one]

Compound: O=C1C(O)=C([C@H]2CC[C@H](c3ccc(Cl)cc3)CC2)C(=O)c2ccccc21 [atovaquone, reference compound]
survival (P. berghei-GFP parasites; days survived beyond untreated control, 50 mg/kg p.o. days 3–5 PE): 23 days
